Holding throughout (type): functional
For one experiment, the system named is UACC-62. Nature of the experiment: Growth inhibition of human UACC62 cells assessed as cell growth at 10^-5 M incubated for 48 hrs by sulforhodamine B assay relative to control. The following applies: UACC-62, 48 h, read-out: Activity.
In a further experiment the test system is NCI-H226. Nature of the experiment: Growth inhibition of human NCI-H226 cells assessed as cell growth at 10^-5 M incubated for 48 hrs by sulforhodamine B assay relative to control. To be noted: NCI-H226, 48 h, read-out: Activity.
The next experiment relates to IGROV-1. Nature of the experiment: Growth inhibition of human IGROV1 cells assessed as cell growth at 10^-5 M incubated for 48 hrs by sulforhodamine B assay relative to control. To be noted: IGROV-1, 48 h, read-out: Activity.
The subject of a further experiment is SW-620. Nature of the experiment: Growth inhibition of human SW620 cells assessed as cell growth at 10^-5 M incubated for 48 hrs by sulforhodamine B assay relative to control. The following applies: SW-620, 48 h, read-out: Activity.
The next experiment deals with A549. Put plainly: Growth inhibition of human A549/ATCC cells assessed as cell growth at 10^-5 M incubated for 48 hrs by sulforhodamine B assay relative to control. The following applies: A549, 48 h, read-out: Activity. (The SRB assay estimates cell density from bound dye.)
In a further experiment the test system is SNB-75. Put plainly: Growth inhibition of human SNB75 cells assessed as cell growth at 10^-5 M incubated for 48 hrs by sulforhodamine B assay relative to control. The following applies: SNB-75, 48 h, read-out: Activity.
The subject of the next experiment is EKVX. Put plainly: Growth inhibition of human EKVX cells assessed as cell growth at 10^-5 M incubated for 48 hrs by sulforhodamine B assay relative to control. To be noted: read-out: Activity.
A further experiment has as its system KM12. Nature of the experiment: Growth inhibition of human KM12 cells assessed as cell growth at 10^-5 M incubated for 48 hrs by sulforhodamine B assay relative to control. The following applies: KM12, 48 h, read-out: Activity.
For another experiment, the system named is HCT-15. Put plainly: Growth inhibition of human HCT15 cells assessed as cell growth at 10^-5 M incubated for 48 hrs by sulforhodamine B assay relative to control. The following applies: HCT-15, 48 h, read-out: Activity.
Another experiment concerns MDA-MB-468. Nature of the experiment: Growth inhibition of human MDA-MB-468 cells assessed as cell growth at 10^-5 M incubated for 48 hrs by sulforhodamine B assay relative to control. The following applies: MDA-MB-468, 48 h, read-out: Activity.
The test system of another experiment is SNB-19. Put plainly: Growth inhibition of human SNB19 cells assessed as cell growth at 10^-5 M incubated for 48 hrs by sulforhodamine B assay relative to control. The following applies: SNB-19, 48 h, read-out: Activity.
For a further experiment, the system named is MCF7. Put plainly: Growth inhibition of human MCF7 cells assessed as cell growth at 10^-5 M incubated for 48 hrs by sulforhodamine B assay relative to control. To be noted: MCF7, 48 h, read-out: Activity.
The subject of another experiment is OVCAR-8. Nature of the experiment: Growth inhibition of human OVCAR8 cells assessed as cell growth at 10^-5 M incubated for 48 hrs by sulforhodamine B assay relative to control. To be noted: OVCAR-8, 48 h, read-out: Activity.
The next experiment deals with UACC-257. Put plainly: Growth inhibition of human UACC257 cells assessed as cell growth at 10^-5 M incubated for 48 hrs by sulforhodamine B assay relative to control. To be noted: UACC-257, 48 h, read-out: Activity.
A further experiment deals with LOX IMVI. Put plainly: Growth inhibition of human LOXIMVI cells assessed as cell growth at 10^-5 M incubated for 48 hrs by sulforhodamine B assay relative to control. The following applies: read-out: Activity.
Another experiment relates to SF-295. Nature of the experiment: Growth inhibition of human SF295 cells assessed as cell growth at 10^-5 M incubated for 48 hrs by sulforhodamine B assay relative to control. To be noted: SF-295, 48 h, read-out: Activity.
Another experiment relates to ACHN. Put plainly: Growth inhibition of human ACHN cells assessed as cell growth at 10^-5 M incubated for 48 hrs by sulforhodamine B assay relative to control. To be noted: read-out: Activity.
In a further experiment the test system is T47D. Nature of the experiment: Growth inhibition of human T47D cells assessed as cell growth at 10^-5 M incubated for 48 hrs by sulforhodamine B assay relative to control. The following applies: read-out: Activity.
The next experiment concerns HCT-116. Nature of the experiment: Growth inhibition of human HCT116 cells assessed as cell growth at 10^-5 M incubated for 48 hrs by sulforhodamine B assay relative to control. To be noted: HCT-116, 48 h, read-out: Activity.
The test system of a further experiment is MDA-MB-231. Put plainly: Growth inhibition of human MDA-MB-231 cells assessed as cell growth at 10^-5 M incubated for 48 hrs by sulforhodamine B assay relative to control. The following applies: MDA-MB-231, 48 h, read-out: Activity.
The subject of another experiment is 786-0. Nature of the experiment: Growth inhibition of human 786-0 cells assessed as cell growth at 10^-5 M incubated for 48 hrs by sulforhodamine B assay relative to control. The following applies: 786-0, 48 h, read-out: Activity.

The values that follow come from ChEMBL document CHEMBL4033677, “Design and synthesis of pyrazolo[3,4-d]pyrimidines: Nitric oxide releasing compounds targeting hepatocellular carcinoma” (Bioorg Med Chem, 2017).

Molecules are shown by their SMILES.

Take `Cc1nc(Nc2ccc(OCCCBr)cc2)c2cnn(-c3ccccc3)c2n1`: the growth at 10 µM in the experiment with UACC-62 came out at 86.2%; in the experiment on NCI-H226, 81.1%; in the experiment with IGROV-1 it was 90.3%; with SW-620 it was 93.3%; in the experiment with A549 it was 72.2%; in the experiment on SNB-75, 88.7%. For the same molecule, the growth at 10 µM stood at 76.5% in the experiment with EKVX; 98.3% in the experiment on KM12; 99.2% in the experiment with HCT-15; 98.9% in the experiment with MDA-MB-468; 92.6% in the experiment with SNB-19; 82.4% in the experiment on MCF7. Further, the growth at 10 µM was 75.7% in the experiment on OVCAR-8; 94.4% in the experiment on UACC-257; 94.6% with LOX IMVI; 101% with SF-295; 103% in the experiment on ACHN; 83.6% in the experiment with T47D. For the same molecule, the growth at 10 µM in the experiment with HCT-116 worked out at 67.2%; with MDA-MB-231 it was 80.4%; in the experiment with 786-0, 91.6%.
`BrCCCOc1ccc(Nc2ncnc3c2cnn3-c2ccccc2)cc1`: the growth at 10 µM in the experiment on UACC-62 stood at 91.4%; with NCI-H226, 84.1%; in the experiment with IGROV-1, 80.5%; with SW-620, 114%; in the experiment with A549, 90.7%; with SNB-75, 93.3%. Further, the growth at 10 µM came to 83.2% in the experiment on EKVX; 88.9% with KM12; 59.2% in the experiment with HCT-15; 99.7% in the experiment with MDA-MB-468; 97.7% with SNB-19; 88.8% in the experiment on MCF7. For the same molecule, the growth at 10 µM turned out to be 92.7% in the experiment on OVCAR-8; 109% in the experiment with UACC-257; 98.1% with LOX IMVI; 107% in the experiment on SF-295; 96.5% in the experiment with ACHN; 84.2% in the experiment on T47D. The growth at 10 µM in the experiment on HCT-116 worked out at 96.7%; in the experiment with MDA-MB-231, 96.9%; in the experiment with 786-0, 106%.
For `Cc1nc(Nc2ccc(OCCCBr)cc2)c2c(C)nn(-c3ccccc3)c2n1`, the growth at 10 µM in the experiment with UACC-62 turned out to be 83%; with NCI-H226, 90%; in the experiment on IGROV-1, 91.8%; in the experiment on SW-620, 111%; in the experiment with A549, 78.7%; with SNB-75 it was 105%. The growth at 10 µM with EKVX is 90.9%; in the experiment with KM12, 96.6%; in the experiment on HCT-15, 94%; in the experiment on MDA-MB-468, 95%; with SNB-19, 94.5%; with MCF7, 90.3%. Moreover, the growth at 10 µM in the experiment on OVCAR-8 was 94.6%; with UACC-257, 93.3%; with LOX IMVI it was 98.3%; with SF-295, 96.3%; in the experiment on ACHN, 108%; with T47D, 83.5%. Also, the growth at 10 µM with HCT-116 was 81.3%; in the experiment on MDA-MB-231, 94%; with 786-0, 83.6%.
As for `Cc1nn(-c2ccccc2)c2ncnc(Nc3ccc(OCCCBr)cc3)c12`, the growth at 10 µM is 89.3% in the experiment on UACC-62; 101% in the experiment on NCI-H226; 105% with IGROV-1; 108% in the experiment on SW-620; 60.9% in the experiment on A549; 115% with SNB-75. The growth at 10 µM in the experiment on EKVX is 92.5%; with KM12 it was 99.6%; in the experiment on HCT-15, 90%; in the experiment on MDA-MB-468 it was 95.5%; in the experiment with SNB-19 it was 94.7%; with MCF7 it was 93.8%. The growth at 10 µM was 94.2% in the experiment on OVCAR-8; 84.8% in the experiment on UACC-257; 106% with LOX IMVI; 93% in the experiment with SF-295; 109% with ACHN; 84.8% with T47D. In addition, the growth at 10 µM in the experiment with HCT-116 amounted to 81.5%; with MDA-MB-231 it was 87.4%; in the experiment with 786-0 it was 64.3%.
